Test: Influencing factor test of crystal form A (high temperature, high humidity, light)
Format: physicochemical
Source text: Sample purity and solubility data were collected using an Agilent model 1260 high-performance liquid chromatograph (equipped with DAD detector). [table]

[1] = High humidity (25° C., 90% ± 5%), Day 5
[2] = High humidity (25° C., 90% ± 5%), Day 10
[3] = High humidity (25° C., 90% ± 5%), Day 30
[4] = High temperature (60° C.), Day 5
[5] = High temperature (60° C.), Day 10
[6] = High temperature (60° C.), Day 30
[7] = High temperature and humidity (60° C., 75% ± 5%), Day 5
[8] = High temperature and humidity (60° C., 75% ± 5%), Day 10
[9] = High temperature and humidity (60° C., 75% ± 5%), Day 30
[10] = Light exposure (25° C., 4500 Lx ± 500 Lx, NUV 0.9 w/m^2), bare sample, Day 5
[11] = Light exposure (25° C., 4500 Lx ± 500 Lx, NUV 0.9 w/m^2), bare sample, Day 10
[12] = Light exposure (25° C., 4500 Lx ± 500 Lx, NUV 0.9 w/m^2), bare sample, Day 30

Content (HPLC, calculated by anhydrous substance) (Day 0, Table M-2): 99.2%
Moisture (KF) (Day 0, Table M-2): 0.11%
Other single impurity RRT~1.10 (HPLC) (Day 0, Table M-2): 0:0.14%
Other single impurity RRT~1.23 (HPLC) (Day 0, Table M-2): 3:0.03%
Other single impurity RRT~1.44 (HPLC) (Day 0, Table M-2): 4:0.03%
Other single impurity RRT~1.53 (HPLC) (Day 0, Table M-2): 3:0.03%
Other single impurity RRT~1.87 (HPLC) (Day 0, Table M-2): 7:0.03%
Total impurities (HPLC) (Day 0, Table M-2): 0.26%
Content (HPLC, calculated by anhydrous substance) (Day 0, Table M-3): 99.8%
Moisture (KF) (Day 0, Table M-3): 0.11%
Other single impurity RRT~1.10 (HPLC) (Day 0, Table M-3): 0:0.13%
Other single impurity RRT~1.24 (HPLC) (Day 0, Table M-3): 4:0.03%
Other single impurity RRT~1.48 (HPLC) (Day 0, Table M-3): 8:0.03%
Other single impurity RRT~1.58 (HPLC) (Day 0, Table M-3): 8:0.03%
Other single impurity RRT~1.97 (HPLC) (Day 0, Table M-3): 7:0.03%
Total impurities (HPLC) (Day 0, Table M-3): 0.25%
Content (HPLC, calculated by anhydrous substance) [1]: 99.4%
Moisture (KF) [1]: 0.21%
Other single impurity RRT~1.10 (HPLC) [1]: 0:0.14%
Other single impurity RRT~1.24 (HPLC) [1]: 4:0.04%
Other single impurity RRT~1.48 (HPLC) [1]: 8:0.03%
Other single impurity RRT~1.59 (HPLC) [1]: 9:0.03%
Other single impurity RRT~1.92 (HPLC) [1]: 2:0.03%
Other single impurity RRT~1.97 (HPLC) [1]: 7:0.03%
Total impurities (HPLC) [1]: 0.30%
Content (HPLC, calculated by anhydrous substance) [2]: 99.7%
Moisture (KF) [2]: 0.23%
Other single impurity RRT~1.10 (HPLC) [2]: 0:0.13%
Other single impurity RRT~1.24 (HPLC) [2]: 4:0.03%
Other single impurity RRT~1.46 (HPLC) [2]: 6:0.03%
Other single impurity RRT~1.56 (HPLC) [2]: 6:0.03%
Other single impurity RRT~1.88 (HPLC) [2]: 8:0.03%
Other single impurity RRT~1.93 (HPLC) [2]: 3:0.03%
Total impurities (HPLC) [2]: 0.28%
Content (HPLC, calculated by anhydrous substance) [3]: 101.3%
Moisture (KF) [3]: 0.10%
Other single impurity RRT~1.10 (HPLC) [3]: 0:0.15%
Other single impurity RRT~1.24 (HPLC) [3]: 4:0.03%
Other single impurity RRT~1.48 (HPLC) [3]: 8:0.03%
Other single impurity RRT~1.59 (HPLC) [3]: 9:0.03%
Other single impurity RRT~1.92 (HPLC) [3]: 2:0.03%
Other single impurity RRT~1.97 (HPLC) [3]: 7:0.03%
Total impurities (HPLC) [3]: 0.30%
Content (HPLC, calculated by anhydrous substance) [4]: 99.1%
Moisture (KF) [4]: 0.09%
Other single impurity RRT~1.10 (HPLC) [4]: 0:0.13%
Other single impurity RRT~1.24 (HPLC) [4]: 4:0.04%
Other single impurity RRT~1.48 (HPLC) [4]: 8:0.03%
Other single impurity RRT~1.59 (HPLC) [4]: 9:0.03%
Other single impurity RRT~1.92 (HPLC) [4]: 2:0.03%
Other single impurity RRT~1.97 (HPLC) [4]: 7:0.03%
Total impurities (HPLC) [4]: 0.29%
Content (HPLC, calculated by anhydrous substance) [5]: 99.8%
Moisture (KF) [5]: 0.09%
Other single impurity RRT~1.10 (HPLC) [5]: 0:0.14%
Other single impurity RRT~1.24 (HPLC) [5]: 4:0.03%
Other single impurity RRT~1.46 (HPLC) [5]: 6:0.03%
Other single impurity RRT~1.56 (HPLC) [5]: 6:0.03%
Other single impurity RRT~1.93 (HPLC) [5]: 3:0.03%
Total impurities (HPLC) [5]: 0.26%
Content (HPLC, calculated by anhydrous substance) [6]: 100.9%
Other single impurity RRT~1.10 (HPLC) [6]: 0:0.14%
Other single impurity RRT~1.24 (HPLC) [6]: 4:0.03%
Other single impurity RRT~1.48 (HPLC) [6]: 8:0.03%
Other single impurity RRT~1.58 (HPLC) [6]: 8:0.03%
Other single impurity RRT~1.92 (HPLC) [6]: 2:0.03%
Other single impurity RRT~1.97 (HPLC) [6]: 7:0.03%
Total impurities (HPLC) [6]: 0.29%
Content (HPLC, calculated by anhydrous substance) [7]: 99.6%
Moisture (KF) [7]: 0.12%
Other single impurity RRT~1.10 (HPLC) [7]: 0:0.14%
Other single impurity RRT~1.24 (HPLC) [7]: 4:0.03%
Other single impurity RRT~1.46 (HPLC) [7]: 6:0.03%
Other single impurity RRT~1.56 (HPLC) [7]: 6:0.03%
Other single impurity RRT~1.88 (HPLC) [7]: 8:0.03%
Other single impurity RRT~1.93 (HPLC) [7]: 3:0.03%
Total impurities (HPLC) [7]: 0.29%
Content (HPLC, calculated by anhydrous substance) [8]: 101.3%
Moisture (KF) [8]: 0.14%
Other single impurity RRT~1.10 (HPLC) [8]: 0:0.14%
Other single impurity RRT~1.24 (HPLC) [8]: 4:0.03%
Other single impurity RRT~1.48 (HPLC) [8]: 8:0.03%
Other single impurity RRT~1.59 (HPLC) [8]: 9:0.03%
Other single impurity RRT~1.97 (HPLC) [8]: 7:0.03%
Total impurities (HPLC) [8]: 0.26%
Content (HPLC, calculated by anhydrous substance) [9]: 99.3%
Moisture (KF) [9]: 0.14%
Other single impurity RRT~1.10 (HPLC) [9]: 0:0.14%
Other single impurity RRT~1.24 (HPLC) [9]: 4:0.03%
Other single impurity RRT~1.48 (HPLC) [9]: 8:0.03%
Other single impurity RRT~1.58 (HPLC) [9]: 8:0.03%
Other single impurity RRT~1.96 (HPLC) [9]: 6:0.03%
Total impurities (HPLC) [9]: 0.26%
Content (HPLC, calculated by anhydrous substance) [10]: 99.6%
Moisture (KF) [10]: 0.10%
Other single impurity RRT~1.10 (HPLC) [10]: 0:0.14%
Other single impurity RRT~1.24 (HPLC) [10]: 4:0.03%
Other single impurity RRT~1.46 (HPLC) [10]: 6:0.03%
Other single impurity RRT~1.56 (HPLC) [10]: 6:0.03%
Other single impurity RRT~1.93 (HPLC) [10]: 3:0.03%
Total impurities (HPLC) [10]: 0.26%
Content (HPLC, calculated by anhydrous substance) [11]: 100.7%
Moisture (KF) [11]: 0.10%
Other single impurity RRT~1.10 (HPLC) [11]: 0:0.14%
Other single impurity RRT~1.24 (HPLC) [11]: 4:0.03%
Other single impurity RRT~1.48 (HPLC) [11]: 8:0.03%
Other single impurity RRT~1.59 (HPLC) [11]: 9:0.03%
Other single impurity RRT~1.97 (HPLC) [11]: 7:0.03%
Total impurities (HPLC) [11]: 0.26%
Content (HPLC, calculated by anhydrous substance) [12]: 99.8%
Moisture (KF) [12]: 0.10%
Other single impurity RRT~1.10 (HPLC) [12]: 0:0.13%
Other single impurity RRT~1.24 (HPLC) [12]: 4:0.03%
Other single impurity RRT~1.48 (HPLC) [12]: 8:0.03%
Other single impurity RRT~1.58 (HPLC) [12]: 8:0.03%
Other single impurity RRT~1.97 (HPLC) [12]: 7:0.03%
Total impurities (HPLC) [12]: 0.25%
Compound: O=C1CO[C@H](c2cn(-c3ccc(Br)cc3)nc2-c2ccc(F)cc2)N1CCc1ccc2[nH]c(=O)[nH]c2c1 [Crystal form A]

From patent publication US12686674B2, “Crystal form of compound represented by formula I, and preparation therefor and application thereof” (Shanghai Zhimeng Biopharma, Inc., priority 2021, dated 2026)
